Reference: ChEMBL document CHEMBL3351287, “β-Ionone derived apoptosis inducing endoperoxides; Discovery of potent leads for anticancer agents” (Eur J Med Chem, 2014)
Counter-ions that a name gives are not always drawn. Activity calls are given as the source filed them. The rule behind the calls is not given here.

What was measured:
[1] = Cytotoxicity against human PC3 cells after 48 hrs by SRB assay; assay type: functional, cell-based; conditions: PC-3, 48 h
[2] = system: A549; experiment: Induction of apoptosis in human A549 cells assessed as caspase 3 activation at 1 uM after 12 hrs […] by colorimetry relative to control; assay type: functional, cell-based
[3] = system: MCF7; experiment: Cytotoxicity against human MCF7 cells after 48 hrs by SRB assay; assay type: functional, cell-based; conditions: MCF7, 48 h
[4] = system: A549; experiment: Induction of apoptosis in human A549 cells assessed as loss of membrane potential at 1 uM after 24 hrs using Rhodamine-123 by flow cytometric analysis (Rvb =12.1 %); assay type: functional
[5] = system: A549; experiment: Cytotoxicity against human A549 cells after 48 hrs by SRB assay; assay type: functional, cell-based; conditions: A549, 48 h
[6] = system: A549; experiment: Induction of apoptosis in human A549 cells assessed as increase in intracellular ROS at 1 uM after 24 hrs using DCFH-DA by spectrofluorimetry relative to control; assay type: functional, cell-based
[7] = system: A549; experiment: Induction of apoptosis in human A549 cells assessed as increase in hypodiploid sub-G1 DNA fraction at 10 uM after 24 hrs by propidium iodide-based flow cytometric analysis (reference value: 3 %); assay type: functional
[8] = system: THP-1; experiment: Cytotoxicity against human THP1 cells after 48 hrs by SRB assay; assay type: functional, cell-based; conditions: THP-1, 48 h
[9] = system: A549; experiment: Induction of apoptosis in human A549 cells assessed as caspase 9 activation at 1 uM after 12 hrs […] by colorimetry relative to control; assay type: functional, cell-based
[10] = system: A549; experiment: Induction of apoptosis in human A549 cells assessed as increase in hypodiploid sub-G1 DNA fraction at 1 uM after 24 hrs by propidium iodide-based flow cytometric analysis (reference value: 3 %); assay type: functional
[11] = system: A549; experiment: Induction of apoptosis in human A549 cells assessed as increase in hypodiploid sub-G1 DNA fraction at 2 uM after 24 hrs by propidium iodide-based flow cytometric analysis (reference value: 3 %); assay type: functional
[12] = system: A549; experiment: Induction of apoptosis in human A549 cells assessed as loss of membrane potential at 2 uM after 24 hrs using Rhodamine-123 by flow cytometric analysis (Rvb =12.1 %); assay type: functional
[13] = system: CHO; experiment: Cytotoxicity against CHO cells assessed as change in LDH at 10 to 100 uM after 48 hrs by LDH colorimetric assay relative to control; assay type: cell-based, Cricetulus griseus; conditions: chinese hamster
[14] = system: CHO; experiment: Cytotoxicity against CHO cells assessed as change in LDH at 20 uM after 48 hrs by LDH colorimetric assay relative to control; assay type: cell-based, Cricetulus griseus; conditions: chinese hamster
[15] = system: CHO; experiment: Cytotoxicity against CHO cells assessed as change in LDH at 1 uM after 48 hrs by LDH colorimetric assay relative to control; assay type: cell-based, Cricetulus griseus; conditions: chinese hamster

| SMILES | IC50 [1] | Activity [2] | IC50 [3] | Activity [4] | IC50 [5] | Activity [6] | Activity [7] | IC50 [8] | Activity [9] | Activity [10] | Activity [11] | Activity [12] | Activity [13] | Activity [14] | Activity [15] |
| --- | --- | --- | --- | --- | --- | --- | --- | --- | --- | --- | --- | --- | --- | --- | --- |
| CC1(C)CCC[C@]2(C)O[C@]3(/C=C/c4ccc(Cl)c(Cl)c4)C=CC12OO3 (mixture of isomers) | 21 µM | Active | 4200 nM | 63% | 4100 nM | Active | 71.7% | 0.2 µM | Active | 48.2% |  |  |  |  |  |
| CO[C@@]12[C@H](COC(N)=O)C3=C(C(=O)C(C)=C(N)C3=O)N1C[C@@H]1N[C@@H]12 [MITOMYCIN] |  |  | 200 nM |  | 40 nM |  |  | 0.1 µM |  |  |  |  |  |  |  |
| COc1ccc(/C=C/[C@@]23C=CC4(OO2)C(C)(C)CCC[C@]4(C)O3)c(OC)c1OC (mixture of isomers) | > 100 µM | Active | 18000 nM | 91.7% | 7000 nM | Active | 74.7% | 25 µM | Active | 60.4% |  |  |  |  |  |
| CC1(C)CCC[C@]2(C)O[C@]3(/C=C/c4ccccc4F)C=CC12OO3 (mixture of isomers) | > 100 µM | Active | 100 nM | 99.8% | 3 nM | Active | 74.8% | 0.4 µM | Active | 60.7% |  |  |  |  |  |
| COc1ccccc1/C=C/[C@@]12C=CC3(OO1)C(C)(C)CCC[C@]3(C)O2 (mixture of isomers) | > 100 µM | Active | 11000 nM | 99.8% | 6500 nM | Active | 83% | 13 µM | Active | 68.2% |  |  |  |  |  |
| COc1cccc2c1C(=O)c1c(O)c3c(c(O)c1C2=O)C[C@@](O)(C(=O)CO)C[C@@H]3O[C@H]1C[C@H](N)[C@H](O)[C@H](C)O1 [DOXORUBICIN HYDROCHLORIDE] |  |  |  |  | 100 nM |  |  |  |  |  |  |  |  |  |  |
| CC1(C)CCC[C@]2(C)O[C@]3(/C=C/c4ccccc4Br)C=CC12OO3 (mixture of isomers) | > 100 µM | Active | 1300 nM | 99.8% | 2000 nM | Active | 78.2% | 0.1 µM | Active | 44.9% |  |  |  |  |  |
| COc1ccc(/C=C/[C@@]23C=CC4(OO2)C(C)(C)CCC[C@]4(C)O3)cc1OC (mixture of isomers) | > 100 µM | Active | 10000 nM | 99.7% | 12000 nM | Active | 69.8% | 11 µM | Active | 67.9% |  |  |  |  |  |
| O=c1[nH]cc(F)c(=O)[nH]1 [FLUOROURACIL] |  |  |  |  |  |  |  | 0.04 µM |  |  |  |  |  |  |  |
| CC1(C)CCC[C@]2(C)O[C@]3(/C=C/c4ccccc4Cl)C=CC12OO3 (mixture of isomers) | 13 µM | Active | 1000 nM | 99.7% | 900 nM | Active | 61% | 3.5 µM | Active | 16.9% |  |  |  |  |  |
| CC[C@@]1(O)C(=O)OCc2c1cc1n(c2=O)Cc2cc3ccccc3nc2-1 [CAMPTOTHECIN] |  |  |  |  |  |  |  |  |  |  | 49% | 96.1% | 126% |  |  |
| CC1(C)CCC[C@]2(C)O[C@]3(/C=C/c4cccc5ccccc45)C=CC12OO3 (mixture of isomers) | > 100 µM | Active | 700 nM | 99.8% | 20 nM | Active | 80.3% | 7.4 µM | Active | 66.8% |  |  |  |  |  |
| CC1(C)CCC[C@]2(C)O[C@]3(/C=C/c4ccccc4[N+](=O)[O-])C=CC12OO3 (mixture of isomers) | > 100 µM | Active | 7700 nM | 99.7% | 1 nM | Active | 76% | 2.8 µM | Active | 74.8% |  |  |  | 135% | 108% |
| Cc1ccccc1/C=C/[C@@]12C=CC3(OO1)C(C)(C)CCC[C@]3(C)O2 (mixture of isomers) | 20 µM | Active | 10 nM | 50.5% | 4300 nM | Active | 69.8% | 4 µM | Active | 67% |  |  |  |  |  |
